The source of these data is PMC5862592, “CDK8/19 inhibition induces premature G1/S transition and ATR-dependent cell death in prostate cancer cells” (Oncotarget, 2018).

Holding throughout (assay): biochemical
What all share (parameters): KINOMEscan active site-directed competition binding assay (DiscoveRx), 456 kinases, per cent of control at 300 nM
What all share (conditions): read-out: Percent of Control (%)

The target of one test is AKT1 (Homo sapiens, UniProt P31749). The method, boiled down: (§1)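 Single-concentration selectivity screen: compound 300 nmol/L; 456-kinase panel; active-site-directed competition binding read-out.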
In a further test the target is PAK6 (Homo sapiens, UniProt Q9NQU5). The method, boiled down:
as §1

The next test deals with CAMK2D (Homo sapiens, UniProt Q13557). The method, boiled down: as §1
For a further test, the target named is FLT3(ITD) (Homo sapiens, UniProt P36888, ITD). Summed up:
as §1

A further test has as its target PLK3 (Homo sapiens, UniProt Q9H4B4). Summed up: as §1
Test [1] has as its target T1, ABL1(M351T)-phosphorylated (Homo sapiens, UniProt P00519, M351T).
T1 construct: phosphorylated
The method, boiled down: as §1

The next test concerns the target MELK (Homo sapiens, UniProt Q14680). Summed up: as §1
The next test concerns the target T2, PRP4 (Homo sapiens, UniProt Q13523).
T2 construct: gene PRPF4B
The method, boiled down:
as §1

The target in another test is SRMS (Homo sapiens, UniProt Q9H3Y6). Summed up:
as §1

The target in a further test is PIK3C2G (Homo sapiens, UniProt O75747). Summed up:
as §1

Another test deals with NEK6 (Homo sapiens, UniProt Q9HC98). Summed up: as §1
Another test addresses STK35 (Homo sapiens, UniProt Q8TDR2). Summed up: as §1
The next test deals with T3, AMPK-alpha1 (Homo sapiens, UniProt Q13131).
T3 construct: gene PRKAA1
The method, boiled down:
as §1

The target in the next test is TSSK1B (Homo sapiens, UniProt Q9BXA7). Summed up: as §1
In another test the target is CSNK1A1L (Homo sapiens, UniProt Q8N752). Summed up: as §1
The target of the next test is EPHA1 (Homo sapiens, UniProt P21709). Summed up:
as §1

The target of another test is PDGFRB (Homo sapiens, UniProt P09619). Summed up: as §1
The next test has as its target FGFR3 (Homo sapiens, UniProt P22607). Summed up:
as §1

A further test addresses EPHA2 (Homo sapiens, UniProt P29317). Summed up:
as §1

In the next test the target is PKN1 (Homo sapiens, UniProt Q16512). Summed up:
as §1

The target of the next test is RAF1 (Homo sapiens, UniProt P04049). The method, boiled down:
as §1

A further test concerns the target IRAK4 (Homo sapiens, UniProt Q9NWZ3). The method, boiled down: as §1

SMILES strings stand for the structures. Read-outs that look alike come from different tables or passages of the source.

SRMS, sequence (Q9H3Y6 whole entry): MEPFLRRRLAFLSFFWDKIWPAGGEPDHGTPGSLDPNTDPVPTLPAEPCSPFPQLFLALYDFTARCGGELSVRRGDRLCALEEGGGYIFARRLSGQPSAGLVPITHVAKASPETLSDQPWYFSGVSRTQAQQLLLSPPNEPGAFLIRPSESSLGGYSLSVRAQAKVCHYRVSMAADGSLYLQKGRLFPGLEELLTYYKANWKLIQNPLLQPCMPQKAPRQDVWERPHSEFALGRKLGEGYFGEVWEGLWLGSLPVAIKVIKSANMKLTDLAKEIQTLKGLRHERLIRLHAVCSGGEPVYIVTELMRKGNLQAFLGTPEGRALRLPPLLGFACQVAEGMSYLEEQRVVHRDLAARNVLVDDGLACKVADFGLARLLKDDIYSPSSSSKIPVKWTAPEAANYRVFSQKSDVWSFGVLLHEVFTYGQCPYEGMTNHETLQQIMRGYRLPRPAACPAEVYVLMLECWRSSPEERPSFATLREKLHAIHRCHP
CAMK2D, sequence (Q13557 whole entry): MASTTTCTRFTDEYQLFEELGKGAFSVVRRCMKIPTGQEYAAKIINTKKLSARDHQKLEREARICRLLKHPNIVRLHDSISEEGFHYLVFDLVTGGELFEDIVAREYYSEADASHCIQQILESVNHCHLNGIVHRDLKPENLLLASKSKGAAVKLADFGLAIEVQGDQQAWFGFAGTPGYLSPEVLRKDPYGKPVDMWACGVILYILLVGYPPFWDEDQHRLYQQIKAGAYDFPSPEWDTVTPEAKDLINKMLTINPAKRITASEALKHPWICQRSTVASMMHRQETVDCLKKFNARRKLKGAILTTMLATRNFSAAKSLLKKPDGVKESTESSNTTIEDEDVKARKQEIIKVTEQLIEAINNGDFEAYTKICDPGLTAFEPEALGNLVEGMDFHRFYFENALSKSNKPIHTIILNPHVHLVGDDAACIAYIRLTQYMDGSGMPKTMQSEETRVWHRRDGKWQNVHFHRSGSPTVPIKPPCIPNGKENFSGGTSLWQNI
AKT1, sequence (P31749 whole entry): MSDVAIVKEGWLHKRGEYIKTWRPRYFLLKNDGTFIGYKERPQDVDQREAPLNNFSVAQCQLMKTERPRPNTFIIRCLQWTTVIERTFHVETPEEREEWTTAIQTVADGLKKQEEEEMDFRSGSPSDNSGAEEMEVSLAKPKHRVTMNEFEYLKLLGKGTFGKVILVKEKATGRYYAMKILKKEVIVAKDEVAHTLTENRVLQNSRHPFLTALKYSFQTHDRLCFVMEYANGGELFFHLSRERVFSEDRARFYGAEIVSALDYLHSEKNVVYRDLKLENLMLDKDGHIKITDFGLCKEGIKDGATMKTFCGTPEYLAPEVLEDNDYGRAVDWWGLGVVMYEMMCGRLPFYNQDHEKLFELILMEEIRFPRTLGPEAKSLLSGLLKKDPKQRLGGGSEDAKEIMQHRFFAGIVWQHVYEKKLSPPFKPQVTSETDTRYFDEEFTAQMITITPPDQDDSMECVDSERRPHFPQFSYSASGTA
CSNK1A1L, sequence (Q8N752 whole entry): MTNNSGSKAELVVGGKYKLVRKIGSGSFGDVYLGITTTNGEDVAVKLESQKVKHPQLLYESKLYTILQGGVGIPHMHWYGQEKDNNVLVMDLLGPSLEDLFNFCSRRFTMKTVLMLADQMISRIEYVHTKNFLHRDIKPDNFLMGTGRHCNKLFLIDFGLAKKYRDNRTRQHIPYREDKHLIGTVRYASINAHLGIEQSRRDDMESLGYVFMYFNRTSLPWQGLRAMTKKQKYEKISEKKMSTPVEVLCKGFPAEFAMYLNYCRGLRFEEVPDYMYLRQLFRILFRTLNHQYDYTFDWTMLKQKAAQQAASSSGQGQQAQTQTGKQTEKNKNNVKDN
STK35, sequence (Q8TDR2 whole entry): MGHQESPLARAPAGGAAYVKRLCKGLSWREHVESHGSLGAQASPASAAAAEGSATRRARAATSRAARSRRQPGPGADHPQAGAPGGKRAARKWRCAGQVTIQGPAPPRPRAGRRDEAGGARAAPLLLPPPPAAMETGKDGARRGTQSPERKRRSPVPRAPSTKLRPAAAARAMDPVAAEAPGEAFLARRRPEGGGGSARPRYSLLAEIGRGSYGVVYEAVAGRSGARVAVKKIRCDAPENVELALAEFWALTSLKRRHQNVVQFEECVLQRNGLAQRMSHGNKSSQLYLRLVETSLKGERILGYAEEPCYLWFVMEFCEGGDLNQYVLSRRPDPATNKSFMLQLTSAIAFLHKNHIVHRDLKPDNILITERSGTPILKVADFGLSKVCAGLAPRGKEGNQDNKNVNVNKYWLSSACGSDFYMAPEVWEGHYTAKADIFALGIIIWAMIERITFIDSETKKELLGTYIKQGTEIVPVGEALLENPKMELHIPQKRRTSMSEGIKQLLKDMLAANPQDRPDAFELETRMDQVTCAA
PAK6, sequence (Q9NQU5 whole entry): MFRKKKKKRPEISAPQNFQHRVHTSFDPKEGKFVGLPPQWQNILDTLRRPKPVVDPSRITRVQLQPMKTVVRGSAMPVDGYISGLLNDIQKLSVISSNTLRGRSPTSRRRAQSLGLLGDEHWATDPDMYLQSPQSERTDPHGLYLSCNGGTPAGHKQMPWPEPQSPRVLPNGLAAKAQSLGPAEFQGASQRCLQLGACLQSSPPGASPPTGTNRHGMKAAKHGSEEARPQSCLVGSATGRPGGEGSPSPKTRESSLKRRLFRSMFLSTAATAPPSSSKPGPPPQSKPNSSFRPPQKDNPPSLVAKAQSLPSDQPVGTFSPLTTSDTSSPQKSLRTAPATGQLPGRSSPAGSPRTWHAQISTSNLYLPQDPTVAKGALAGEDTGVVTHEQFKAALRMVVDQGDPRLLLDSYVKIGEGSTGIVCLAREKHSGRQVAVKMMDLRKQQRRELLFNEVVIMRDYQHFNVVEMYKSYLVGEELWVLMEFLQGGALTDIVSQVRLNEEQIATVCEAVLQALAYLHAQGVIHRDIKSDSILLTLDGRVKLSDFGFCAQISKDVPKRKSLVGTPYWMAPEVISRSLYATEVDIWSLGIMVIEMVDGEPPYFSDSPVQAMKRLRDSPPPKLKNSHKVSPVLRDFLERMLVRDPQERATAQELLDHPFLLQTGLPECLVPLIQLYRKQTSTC
NEK6, sequence (Q9HC98 whole entry): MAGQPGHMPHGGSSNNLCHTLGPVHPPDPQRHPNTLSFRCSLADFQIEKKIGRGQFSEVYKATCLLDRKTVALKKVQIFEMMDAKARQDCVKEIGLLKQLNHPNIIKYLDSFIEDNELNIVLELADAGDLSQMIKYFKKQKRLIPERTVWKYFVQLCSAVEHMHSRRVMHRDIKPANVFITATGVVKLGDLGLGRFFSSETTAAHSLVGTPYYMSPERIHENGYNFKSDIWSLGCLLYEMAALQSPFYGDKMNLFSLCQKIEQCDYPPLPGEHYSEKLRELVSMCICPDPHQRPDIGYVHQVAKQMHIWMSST
TSSK1B, sequence (Q9BXA7 whole entry): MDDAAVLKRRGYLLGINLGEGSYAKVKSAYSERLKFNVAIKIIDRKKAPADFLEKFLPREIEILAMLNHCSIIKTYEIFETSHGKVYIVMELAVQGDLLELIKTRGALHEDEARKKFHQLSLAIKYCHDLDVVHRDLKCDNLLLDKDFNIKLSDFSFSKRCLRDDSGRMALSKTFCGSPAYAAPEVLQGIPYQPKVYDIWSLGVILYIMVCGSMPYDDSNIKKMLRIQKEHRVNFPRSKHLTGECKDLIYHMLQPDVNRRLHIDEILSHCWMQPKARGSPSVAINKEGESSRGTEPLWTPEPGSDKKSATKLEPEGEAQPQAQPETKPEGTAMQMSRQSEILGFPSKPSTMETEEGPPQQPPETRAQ
EPHA2, sequence (P29317 whole entry): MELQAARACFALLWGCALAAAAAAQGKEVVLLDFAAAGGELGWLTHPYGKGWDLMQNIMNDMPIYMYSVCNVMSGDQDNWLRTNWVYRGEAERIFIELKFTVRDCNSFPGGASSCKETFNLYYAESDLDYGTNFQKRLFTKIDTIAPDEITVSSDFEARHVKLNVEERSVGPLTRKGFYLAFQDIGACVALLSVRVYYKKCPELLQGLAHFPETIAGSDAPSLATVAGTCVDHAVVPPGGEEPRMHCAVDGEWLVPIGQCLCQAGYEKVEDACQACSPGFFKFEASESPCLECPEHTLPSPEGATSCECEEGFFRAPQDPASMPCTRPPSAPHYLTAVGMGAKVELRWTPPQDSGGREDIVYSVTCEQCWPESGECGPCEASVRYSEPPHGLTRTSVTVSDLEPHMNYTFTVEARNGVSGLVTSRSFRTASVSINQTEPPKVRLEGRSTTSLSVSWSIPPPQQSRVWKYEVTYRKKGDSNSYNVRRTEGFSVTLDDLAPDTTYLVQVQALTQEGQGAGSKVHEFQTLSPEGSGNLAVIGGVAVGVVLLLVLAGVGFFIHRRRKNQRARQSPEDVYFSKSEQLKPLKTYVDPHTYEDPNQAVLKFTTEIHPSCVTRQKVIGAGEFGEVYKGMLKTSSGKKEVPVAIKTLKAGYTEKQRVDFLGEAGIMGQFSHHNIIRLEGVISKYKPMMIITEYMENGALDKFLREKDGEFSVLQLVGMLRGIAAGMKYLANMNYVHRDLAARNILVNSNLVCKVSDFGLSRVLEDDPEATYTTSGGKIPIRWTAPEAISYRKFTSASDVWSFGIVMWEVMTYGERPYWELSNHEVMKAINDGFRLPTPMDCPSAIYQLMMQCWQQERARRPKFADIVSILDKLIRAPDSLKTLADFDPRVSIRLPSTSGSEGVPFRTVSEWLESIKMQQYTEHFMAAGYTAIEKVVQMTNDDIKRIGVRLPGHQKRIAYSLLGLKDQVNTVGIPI

Regarding `Cc1ncccc1Oc1sc(C(N)=O)c2c1-c1c(cnn1C)CC2` [T-474, 1-methyl-8-((2-methylpyridin-3-yl)oxy)-4,5-dihydro-1H-thieno[3,4-g]indazole-6-carboxamide], the remaining binding at 0.3 µM on AKT1 amounted to 98%; on PAK6, 89%; on CAMK2D, 100%; on FLT3(ITD), 100%; at PLK3, 88%; in test [1], 100%. The remaining binding at 0.3 µM worked out at 71% on MELK; 89% on PRP4; 100% at SRMS; 92% at PIK3C2G; 100% on NEK6; 100% at STK35. Moreover, the remaining binding at 0.3 µM on AMPK-alpha1 came out at 100%; on TSSK1B it was 100%; at CSNK1A1L it was 100%; on EPHA1, 73%; on PDGFRB it was 100%; on FGFR3 it was 97%. In addition, the remaining binding at 0.3 µM is 86% at EPHA2, 54% on PKN1, 98% on RAF1 and 100% on IRAK4.
As for `O=C(/C=C/c1cnccc1-c1ccc(F)cc1)Nc1ccc(CCc2nnco2)cc1` [T-418, (2E)-3-(4-(4-fluorophenyl)pyridin-3-yl)-N-(4-(2-(1,3,4-oxadiazol-2-yl)ethyl)phenyl)acrylamide], the remaining binding at 0.3 µM at AKT1 (sheet T-418) was 85%; at PAK6 (sheet T-418), 85%; on CAMK2D (sheet T-418), 100%; on FLT3(ITD) (sheet T-418), 100%; at PLK3 (sheet T-418), 82%; in test [1] (sheet T-418) it was 100%. The remaining binding at 0.3 µM on MELK (sheet T-418) came out at 100%; at PRP4 (sheet T-418), 82%; on SRMS (sheet T-418), 100%; at PIK3C2G (sheet T-418), 95%; on NEK6 (sheet T-418), 98%; on STK35 (sheet T-418) it was 98%. The remaining binding at 0.3 µM at AMPK-alpha1 (sheet T-418) was determined as 100%; at TSSK1B (sheet T-418), 100%; at CSNK1A1L (sheet T-418) it was 92%; at EPHA1 (sheet T-418), 71%; on PDGFRB (sheet T-418), 100%; on FGFR3 (sheet T-418), 100%. Further, the remaining binding at 0.3 µM turned out to be 100% at EPHA2 (sheet T-418), 48% at PKN1 (sheet T-418), 80% at RAF1 (sheet T-418) and 100% at IRAK4 (sheet T-418).
